Results on one compound are retold here after patent US5984868A, “Device for measuring an absorbed dose of gas by skin and method therefor” (Institute of Occupational Safety and Health, Council of …, priority 1998, dated 1999).

The structures appear in SMILES notation. Several values for one entry are separate records, joined by “and”; a condition that tells them apart may be missing. Equal values may be shown once.

The nature of data set [1]: Absorbed dose of vapor by skin of an arm in feedback-controlled exposure chamber, six voluntary subjects (Embodiment 1, 300±10 ppm). It counts as in vivo, human. The conditions noted are these: human, topical or ocular, 300±10 ppm vapor; mean of six subjects; read-out: permeability constant, mean (converted). As to the method:
(§1) The injection rate of the injection system was checked with a five-digit balance (Mettler model AT-201, Switzerland). 2-methoxy ethanol was continuously injected into a glass bottle, and six continuous injections were measured to obtain the average value and the coefficient of variation. Each continuous injection had 10 injection does. An average injection dose was obtained from the […] injection doses. The average dose of each ejection was then used as a computation base for checking the injection dose of the system. After each human experiment, the above weight calibration was used again to check the average injection dose of each ejection so as to obtain the relative percentage error of the average injection doses before and after the experiment. The flash evaporation chamber is a small glass chamber which is embraced by a heating strap and a temperature control device, as shown in FIG. 1. The flash evaporation chamber was used to accelerate the evaporation of the liquid 2-methoxy ethanol and to shorten the reaction time of the system. When the evaporation of the liquid was slower than the skin absorption rate, it will cause the injection system to continuously inject the 2-methoxy ethanol, and thus result in an excess absorption dose of the vapor by the skin of the human under test. The flash evaporation chamber of the present invention can avoid this problem by providing with the heating strap.
(§2) The measurement of the absorbed dose of vapor by skin was carried out respectively with each of six voluntary subjects whose personal data are shown in the following Table 3:
(§3) The method of the first embodiment is illustrated in FIG. 1 in which the arm of a subject is shown being put into an exposure chamber. The exposure chamber contains 2-methoxy ethanol having a concentration of 300±10 ppm, with the relative humidity and the temperature of the exposure chamber being respectively 80±2%, and 25±1° C. For details of the control of the first embodiment, please refer to the Preparatory Embodiments described above.
(§4) According, m5 can be justifiably ignored.

In data set [2] the test system is skin. The description is as above. The format is in vivo, human. As to the method: as §1, §2, §3, §4
A short description of data set [3]: 2-methoxy ethanol dose in the subject's exhalation. It counts as in vivo. To be noted: human, exhaled air, topical or ocular; of the total absorbed dose; read-out: 2-methoxy ethanol doses in the subject's exhalation, share of total absorbed dose.
Excerpt: as §4

The conditions of data set [4]: Johanson et al, 1988; cited from earlier work.
For data set [5] the following is noted: general statement, no test shown; cited from earlier work.
Data set [6] relates to skin. Put plainly: Absorbed dose of vapor by skin in exposure chamber (Embodiment 2, 25±1.5 ppm). To be noted: 25±1.5 ppm vapor.
Excerpt: The test concentration of the hazardous gas is 25 ppm in compliance with the allowable limit set forth by OSHA. In light of the lack of an exposure chamber large enough to accommodate a human body in its entirety, a small exposure chamber was used to investigate the absorption of the hazardous gas by the skin of an arm. On the basis of the result of the hand, the absorption of the hazardous gas by the skin of the whole body was estimated. […] The hand and the arm of a worker are often exposed on the job and are therefore used as subjects of the investigation. It is also assumed that the gas absorption rate of the skin of a hand is about equal to the average value of the gas absorption rate of the skin of the whole body. […] As a result, an absorbed dose of 300 ppm by a hand is about corresponding to an absorbed dose of 15 ppm by a whole body (300 ppm*1,250 cm^2 /18,000 cm^2 * 0.75). […] The digital signals were then transmitted to a computer (Pentium 100). When the concentration signal of the hazardous gas contained in the exposure chamber received by the computer was lower than the lower limit of 23.5 ppm, an instruction was generated by the software program and transmitted to activate the automatic injection system to raise quickly the concentration up to the upper limit of 26.5 ppm. […] Throughout the experiment of the present invention, a series of injected doses of the hazardous gas were obtained. The sum of the injected doses was used to compute the absorbed dose of the hazardous gas by the skin.
The rotation speeds of the two fans were adjusted to obtain desired wind velocities and flow streams by using an adjustable resistor. […] When the hand was extended into the exposure chamber, the contact portions of the hand and the exposure chamber were covered with two layers of aluminum foil in conjunction with a transparent plastic bag therebetween. In addition, the upper arm was banded with the 3M bandage to avert the gas leak. Located respectively in the front, the middle and the rear of the exposure chamber was a detector for monitoring the uniformity of the gas concentration distribution and the change in the gas concentration throughout the experiment.
It must be noted here that m1 is equal to the post-calibration injection rate multiplied by the accumulated injection times. […] This implies that only m1 and m2 must be measured with precision.
Where [7] appears, read: 300±10 ppm vapor, 80±2% RH, 25±1° C., arm, individual subjects 1-6.
Where [8] appears, read: 300±10 ppm vapor, mean of six subjects.

Regarding `COCCO` [2-methoxy ethanol], the Papp in data set [1] was 3890 ×10⁻⁶ cm/s. In data set [2] (setting [7]), the “m1 (accumulated doses added to stabilize the concentration in the exposure chamber)” value is 430.00 mg and 296.88 mg and 172.46 mg and 285.11 mg and 350.67 mg and 394.56 mg; the “m2 (doses captured by the condensation dehumidifier)” value is 328.50 mg and 222.75 mg and 137.75 mg and 210.00 mg and 301.00 mg and 304.75 mg; the “m3 (gas residual left on the exposed arm after termination of exposure)” value was 0.35 mg and 0.58 mg and 0.66 mg and 0.63 mg and 0.16 mg; the permeability constant is 5575 ×10⁻⁶ cm/s and 4600 ×10⁻⁶ cm/s and 1650 ×10⁻⁶ cm/s and 4508 ×10⁻⁶ cm/s and 2540 ×10⁻⁶ cm/s and 4469 ×10⁻⁶ cm/s. For the same compound, in data set [2] (setting [7]), the skin absorption rate was 18.72 μg/cm^2 /h and 15.45 μg/cm^2 /h and 5.55 μg/cm^2 /h and 15.14 μg/cm^2 /h and 8.52 μg/cm^2 /h and 15.01 μg/cm^2 /h; the “Δm (absorbed dose by skin, m1-m2-m3-m4)” value is 96.11 mg and 68.51 mg and 29.01 mg and 69.44 mg and 44.04 mg and 84.61 mg. In data set [2] (setting [8]), the “skin absorption rate, mean” value came out at 13.07 μg/cm^2 /h and the “Δm (absorbed dose by skin), mean” value came to 65.29 mg. Moreover, the “m3 and m4, respectively, relative to the dose of m1” value in data set [2] (of the dose of m1) is recorded as “less than 1%”. For the same compound, the dose excreted in data set [3] was under 0.4%. Further, in data set [4], the “distribution coefficient of the human blood relative to air” value was 32,836. Besides, in data set [5], the water solubility result was “excellent”. In addition, in data set [6], the “m1 (accumulated doses added to the exposure chamber)” value came out at 34.5 mg, the “m2 (doses captured by the condensation dehumidifier)” value worked out at 27.1 mg, the “m3 (gas residual left on the exposed arm)” value is listed as 0.04 mg and the “m5 (doses contained in the subject's exhalations)” value was “trace”.
